Data: patent publication US11083714B2, “Selective anti-cancer agent effective for prevention and treatment” (Molecular International Research, Inc., priority 2018, dated 2021)

Assays:
[1] = test system: PANC-1 cells; assay: Tumor formation and growth after inoculation of pretreated PANC-1 cells (FIG. 26); format: in vivo, mice
Protocol: FIG. 26. Effect of de-ethylflavopereirine on pancreatic cancer formation and growth. […] In the control group (top line of left graph), 86.67% (13/15) of the untreated mice formed tumors. Compound 13-9-1 (10 μM) decreased the rate to 80% (4/5); there was no effect on the time of tumor formation (bottom line of left graph). […] In the control group (top line of left graph), 80% (12/15) of the untreated mice formed tumors. Compound 13-9-1 (10 μM) decreased the tumor formation rate to 60% (3/5); this indicated reduction in tumor formation initiated by pancreatic cancer stem cells (bottom line of left graph). […] In FIG. 26C, after 2×10^4 PANC-1 cells were inoculated, 20% of the mice formed tumors in both the control group (3/15) and the treated group (1/5) at 38 days of observation.
In vivo, cancer stem cells are the primary source of tumor formation and growth. Thus, the rates of tumor formation and growth are indicators of cancer stem cell activity. When animals are inoculated with limited numbers of cancer cells, rates of tumor formation and growth can be accurately measured. It can then be determined whether a prospective agent slows the formation and growth rates of tumors, which is an indication of whether it acts against cancer stem cells. PANC-1 cancer cells were grown in suspension and pretreated with de-ethylflavopereirine at 10 μM concentration before inoculation into mice. As a negative control, PANC-1 cancer cells were not pretreated with the compound. Following inoculation, the rates of tumor formation and growth were measured. • 1) After 10^6 PANC-1 cells were inoculated, tumors formed in 87% of the mice in the control group and 80% of the mice in the treated group. […] De-ethylflavopereirine reduced tumor formation rate to 60%, indicating inhibition of pancreatic cancer stem cells. […] De-Ethylflavopereirine Suppresses PANC-1 Tumor Formation In Vivo: Anti-Cancer Stem Cell Activity

[2] = test system: RPWE-1; assay: Cell Proliferation (anti-cancer), RPWE-1; format: cell-based, human
Protocol: The primary goal of synthesizing de-ethylflavopereirine (compound 13-9-1) was to generate a different compound that still retains the anti-cancer cell activity of flavopereirine (compound 13-7-2). Comparison of the effects of the two compounds on proliferation of a variety of cancer cells confirmed that this goal was achieved. For example, the effect of de-ethylflavopereirine on two human breast cancer cell lines and two human prostate cancer cell lines were analyzed.

[3] = test system: PANC-1 tumors; assay: Orthotopic PANC-1 luciferase tumors in nude mice; format: in vivo
Text: FIG. 16. Animal Study. PANC-1 cells with luciferase gene were orthotopically implanted into the pancreas of nude mice and the tumors were monitored by live-animal imaging. Longitudinal tumor growth shown by quantification of all images in the treated group (lozenges, n=9) and the untreated group (squares, n=10). Tumor burden is represented by average total photon flux (top) and its log transform (bottom).
Human PANC-1 pancreatic cancer cells were transfected with the luciferase gene to enable imaging in vivo. These cells were transplanted into the pancreas of nude mice and, after 10 days, tumors were established in the mice and they were treated with de-ethylflavopereirine by oral gavage. Longitudinal tumor progress was followed by live-animal imaging. The results of this experiment are depicted in FIGS. 16 to 21.

[4] = mouse, in vivo
Protocol: To estimate the maximum tolerated dose of compounds 13-7-2 and 13-9-1 in mice, both compounds were dissolved in PBS and given to SCID mice by oral gavage.
Compound 13-7-2 was administered at a dose of 100 mg/kg, 150 mg/kg, or 200 mg/kg. Each dose group consisted of three mice.
Compound 13-9-1 was administered at a dose of 100 mg/kg, 150 mg/kg, or 200 mg/kg by oral gavage (three mice per dose group).
In a separate dose finding/toxicity test with compound 13-9-1, three mice received escalating doses of 50 mg/kg/day for 3 days, 100 mg/kg/day for 7 days, 200 mg/kg/day for 7 days, and 300 mg/kg/day for 3 days, given by oral gavage. Mice were monitored closely for toxic signs.

[5] = test system: glioblastoma cell lines U-87MG, DBTRG-05MG, A172; assay: Glioblastoma cell viability and proliferation assay (ATP); format: cell-based; settings: 3 nM to 30 uM, 72 hr
Protocol: FIG. 9. Glioblastoma in vitro cell viability and proliferation assay after treatment with de-ethylflavopereirine. Glioblastoma cell lines U-87MG, DBTRG-05MG, A172, and AM-38 were tested. Temozolomide, an oral chemotherapy drug known to treat some brain cancers, was used as a control. The concentrations of temozolomide (circles) or compound 13-9-1 (squares) used were 3 nM, 10 nM, 30 nM, 100 nM, 1 uM, 3 uM, 10 uM, and 30 uM. Each of the cell lines was treated with de-ethylflavopereirine for 72 hr before measuring cytotoxicity and inhibition of cell proliferation. Number of viable cells in culture based on quantitation of ATP. IC50 was determined as indicated below each graph.
The dose-response curves for the anti-brain cancer drug temozolomide are shown for comparison.

[6] = 1×10^6 PANC-1 cells pretreated at 10 μM
[7] = 2×10^5 PANC-1 cells pretreated at 10 μM

With `c1ccc2c(c1)[nH]c1c2cc[n+]2ccccc12` [Compound 13-9-1, 12H-indolo[2,3-a]quinolizin-5-ium] the “growth of tumors formed” value [1, 6] was “reduced the growth of tumors”, the “time of tumor formation” value [1, 6] was “no effect” and the “tumor formation rate (mice that formed tumors)” value (shortened to “tumor formation rate”) [1, 6] was 80%. For the same compound, the “growth of tumors formed” value ([1]; 1×10^6 PANC-1 cells pretreated at 10 μM, listed as De-ethylflavopereirine) was “significantly inhibited the growth”, the “growth of tumors formed” value ([1]; 2×10^4 PANC-1 cells pretreated at 10 μM) was “not significantly different” and the “tumor formation rate” value ([1]; 2×10^4 PANC-1 cells pretreated at 10 μM, 38 days) was 20%. The “growth of tumors formed” value [1, 7] was “significantly reduced tumor growth”, the “tumor formation rate” value [1, 7] was 60% and the “growth of tumors formed” value ([1]; 2×10^5 PANC-1 cells pretreated at 10 μM, listed as De-ethylflavopereirine) was “slowed the growth rate”. For the same compound, the “Growth Inhibition” value [2] was “Yes”, the IC50 ([2]; Homo sapiens, after any period of treatment, read-out: Minimum Dose (IC50) needed to decrease growth 50% or greater versus control) was 5 µM and the “body weight compared with untreated control group” value ([3]; day 0 through day 40) was “indistinguishable”. The “mice whose tumors were completely abolished” value ([3]; oral gavage) was 22%, the “anti-tumor effect by tumor burden (total photon flux)” value ([3]; oral gavage, treated (n=9) vs untreated (n=10)) was “significant” and the “mice whose tumors were completely abolished (number of animals)” value ([3]; oral gavage, listed as de-ethylflavopereirine) was 2/9 and two of 21. The “examination of internal organs” value ([3]; treated vs untreated) was “failed to reveal any toxic effects”, the “final tumor weights at necropsy” value ([3]; treated vs untreated) was “statistically significant reduction” and the “metastatic lesions at necropsy” value ([3]; treated vs untreated) was “reduced”. The “tolerated dose, oral administration” value ([4]; SCID) was ≥ 300 mg/kg, the deaths ([4]; SCID, po, 200 mg/kg, 48 hr) was “One mouse in the 200 mg/kg group died 15 min after the administration of the compound (apparently due to trauma caused by oral gavage)” and the toxic signs ([4]; po, 50 mg/kg/day) was “No abnormality was observed”. The glioblastoma cell viability [5] was “dose-dependent decrease in glioblastoma cell viability”.
